According to patent US7803801B2, “Aminopyridine compounds having Syk inhibitory activity” (Japan Tobacco, Inc., priority 2005, dated 2010):
Counter-ions that a name gives are not always drawn. Like-named read-outs stand apart in the source and are kept apart here.

How the values were obtained:
[1] = test system: cultured human mast cells; test: Degranulation inhibition test using cultured human mast cells (IgE cross-linking, β-Hexosaminidase release); assay type: cell-based; conditions: Mast cell, cultured human mast cells, read-out: human degranulation ave. IC50
Procedure, shortened: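 CD34+ cord-blood cells cultured ≥8 weeks with SCF/IL-6/IL-3; FcεRI primed 5 days with rhIL-4 (1 ng/mL) and hIgE (0.5 μg/mL). Compound (0.1% DMSO) preincubated 10 min at 37 °C, then anti-IgE (final 10 μg/mL) 30 min; released β-hexosaminidase read at 405 nm versus total lysate, IC50 (M).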

[2] = molecular target: GST-Syk Full Protein (human) (Homo sapiens, UniProt P43405); test: Syk kinase inhibition test (HTRF method); assay type: biochemical
Procedure, shortened: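 Human GST-Syk full-length (6.4 nM) phosphorylated biotin-EDPDYEWPSA-NH2 (250 nM) with 100 μM ATP in HEPES pH 7.0/MgCl2 buffer, 2% DMSO, 30 min at room temperature. EDTA stop, then HTRF detection (streptavidin-XL665, Eu anti-phosphotyrosine) after 1 h; 665/620 ratio read.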

[3] = anti-hIgE stimulation, β-Hexosaminidase index, average
[4] = HTRF, 100 μM ATP, 30 min room temperature, average, read-out: sykHTRF ave IC50
[5] = Tables 1-x, compounds A, read-out: sykHTRF ave IC50
[6] = Tables 2-x, thiophene compounds B
[7] = Tables 2-x, thiophene compounds B, read-out: sykHTRK ave IC50

IC50 [1, 3]	IC50 [2, 4]	IC50 [1, 6]	IC50 [2, 7]	SMILES	also measured
> 1000 nM	> 1000 nM			CC(=O)N[C@@H](C)c1nc(C(N)=O)c(-c2cccc(Nc3cc(C)ccn3)n2)s1 [Compound A-117]	
				Cc1ccnc(Nc2cccc(-c3cnc(CN4CCC(O)C4)s3)n2)c1 (stereo not shown) [Compound A-380]	IC50 ([1]; Tables 1-x, compounds A): 100 to 1000 nM; IC50 [2, 5]: 100 to 1000 nM
		100 to 1000 nM	100 to 1000 nM	CNC(=O)c1cc(C)c(-c2cccc(Nc3cc(C)ccn3)n2)s1 [Compound B-9]	
100 to 1000 nM	100 to 1000 nM			Cc1ccnc(Nc2cccc(-c3cnc(CNC(=O)NCCO)s3)n2)c1 [Compound A-253]	
		> 1000 nM	100 to 1000 nM	Cc1ccnc(Nc2cccc(-c3ccc(C#N)s3)n2)c1 [Compound B-59]	
100 to 1000 nM	100 to 1000 nM			Cc1ccnc(Nc2cccc(-c3cnc(CC4CCC(C(=O)N5CCC(O)CC5)CC4)s3)n2)c1 (stereo not shown) [Compound A-269]	
100 to 1000 nM	< 100 nM			CC(=O)N(C)c1ncc(-c2cccc(Nc3cc(C)ccn3)n2)s1 [Compound A-424, N-methyl-N-{5-[6-(4-methylpyridin-2-ylamino)pyridin-2-yl]thiazol-2-yl}acetamide]	
		100 to 1000 nM	100 to 1000 nM	Cc1ccnc(Nc2cccc(-c3ccc(C(=O)NCC(C)O)s3)n2)c1 (stereo not shown) [Compound B-41]	
				Cc1ccnc(Nc2cccc(-c3cnc(N4CCN(CC(N)=O)C(=O)C4)s3)n2)c1 [Compound A-465, 2-(4-{5-[6-(4-methylpyridin-2-ylamino)pyridin-2-yl]thiazol-2-yl}-2-oxopiperazin-1-yl)acetamide]	IC50 ([1]; Tables 1-x, compounds A): 100 to 1000 nM; IC50 [2, 5]: < 100 nM
		100 to 1000 nM	100 to 1000 nM	CC(=O)c1ccnc(Nc2cccc(-c3ccc(C(C)=O)s3)n2)c1 [Compound B-83]	
> 1000 nM	100 to 1000 nM			CC(=O)N[C@@H](CCC(=O)OCc1ccccc1)c1ncc(-c2cccc(Nc3cc(C)ccn3)n2)s1 [Compound A-98]	
				CNC(=O)CN1C(=O)OC[C@H]1c1ncc(-c2cccc(Nc3cc(C)ccn3)n2)s1 [Compound A-402]	IC50 ([1]; Tables 1-x, compounds A): > 1000 nM; IC50 [2, 5]: > 1000 nM
				CC1(c2ccnc(Nc3cccc(-c4cnc(N5CCC(CC(=O)O)CC5)s4)n3)c2)OCCO1 [Compound A-572, [1-(5-{6-[4-(2-methyl-[1,3]dioxolan-2-yl)pyridin-2-ylamino]pyridin-2-yl}thiazol-2-yl)piperidin-4-yl]acetic acid dihydrochloride]	IC50 ([1]; Tables 1-x, compounds A): 100 to 1000 nM; IC50 [2, 5]: < 100 nM
		> 1000 nM	100 to 1000 nM	Cc1ccnc(Nc2cccc(-c3cccs3)n2)c1 [Compound B-27]	
100 to 1000 nM	100 to 1000 nM			O=C([C@H]1CC[C@H](c2ncc(-c3cccc(Nc4cc5ccccc5cn4)n3)s2)CC1)N1CCC(O)CC1 [Compound A-307]	
		> 1000 nM	100 to 1000 nM	CCC(=O)c1ccc(-c2cccc(Nc3cc(C)ccn3)n2)s1 [Compound B-48]	
> 1000 nM	> 1000 nM			CC(=O)NC1CCN(Cc2ncc(-c3cccc(Nc4cc(C)ccn4)n3)s2)CC1 [Compound A-210]	
		100 to 1000 nM	100 to 1000 nM	Cc1ccnc(Nc2cccc(-c3ccc(C(=O)N4CCC[C@H]4CO)s3)n2)c1 [Compound B-80]	
				Cc1ccnc(Nc2cccc(-c3cnc(N4CCC(CC(=O)O)C4)s3)n2)c1 (stereo not shown) [Compound A-588, (1-{5-[6-(4-methylpyridin-2-ylamino)pyridin-2-yl]thiazol-2-yl}pyrrolidin-3-yl)acetic acid]	IC50 ([1]; Tables 1-x, compounds A): > 1000 nM; IC50 [2, 5]: < 100 nM
> 1000 nM	100 to 1000 nM			Cc1ccnc(Nc2cccc(-c3cnc(CNc4ccc(CC(=O)O)cc4)s3)n2)c1 [Compound A-262]	
> 1000 nM	100 to 1000 nM			Cc1ccnc(Nc2cccc(-c3cnc(CN4CCN(C)CC4)s3)n2)c1 [Compound A-209]	
100 to 1000 nM	< 100 nM			O=C([C@H]1CC[C@H](c2ncc(-c3cccc(Nc4cc(Cl)ccn4)n3)s2)CC1)N1CCC(O)CC1 [Compound A-297, (trans-4-{5-[6-(4-chloropyridin-2-ylamino)pyridin-2-yl]thiazol-2-yl}cyclohexyl)-(4-hydroxypiperidin-1-yl)metanone]	
100 to 1000 nM	100 to 1000 nM			COC(=O)COCc1ncc(-c2cccc(Nc3cc(C)ccn3)n2)s1 [Compound A-361]	
		> 1000 nM	> 1000 nM	CCOC(=O)c1cc(Nc2cc(C)ccn2)nc(-c2ccc(C(C)=O)s2)c1 [Compound B-77]	

IC50 [1, 3]	IC50 [2, 4]	IC50 [1, 6]	IC50 [2, 7]	SMILES	also measured
		100 to 1000 nM	100 to 1000 nM	Cc1ccnc(Nc2cccc(-c3cc(C)c(C(=O)NC(C)(C)CO)s3)n2)c1 [Compound B-88]	
				CCC(=O)N1CCN(c2ncc(-c3cccc(Nc4cc(C)ccn4)n3)s2)CC1 [Compound A-440, 1-(4-{5-[6-(4-methylpyridin-2-ylamino)pyridin-2-yl]thiazol-2-yl}piperazin-1-yl)propan-1-one]	IC50 ([1]; Tables 1-x, compounds A): 100 to 1000 nM; IC50 [2, 5]: < 100 nM
100 to 1000 nM	< 100 nM			Cc1ccnc(Nc2cccc(-c3cnc([C@H]4CC[C@H](C(=O)N5CCC[C@@H]5CO)CC4)s3)n2)c1 [Compound A-286, ((R)-2-hydroxymethylpyrrolidin-1-yl)-(trans-4-{5-[6-(4-methylpyridin-2-ylamino)pyridin-2-yl]thiazol-2-yl}cyclohexyl)metanone]	
100 to 1000 nM	> 1000 nM			COC(=O)[C@H]1CC[C@H](c2ncc(-c3cccc(Nc4cc5ccccc5cn4)n3)s2)CC1 [Compound A-213]	
100 to 1000 nM	100 to 1000 nM			CC(=O)NCCc1ncc(-c2cccc(Nc3cc(C)ccn3)n2)s1 [Compound A-256]	
				Cc1ccnc(Nc2cccc(-c3cnc(N4CCN(CC(=O)O)C(=O)C4)s3)n2)c1 [Compound A-464, (4-{5-[6-(4-methylpyridin-2-ylamino)pyridin-2-yl]thiazol-2-yl}-2-oxopiperazin-1-yl)acetic acid dihydrochloride]	IC50 ([1]; Tables 1-x, compounds A): > 1000 nM; IC50 [2, 5]: < 100 nM
		> 1000 nM	100 to 1000 nM	CC(=NO)c1cc(C)c(-c2cccc(Nc3cc(C)ccn3)n2)s1 [Compound B-7]	
100 to 1000 nM	< 100 nM			Cc1ccnc(Nc2cccc(-c3cnc([C@H]4CC[C@H](C#N)CC4)s3)n2)c1 [Compound A-316, trans-4-{5-[6-(4-methylpyridin-2-ylamino)pyridin-2-yl]thiazol-2-yl}cyclohexanecarbonitrile]	
		> 1000 nM	100 to 1000 nM	CC(=O)OC(C)c1ccc(-c2cccc(Nc3cc(C)ccn3)n2)s1 (stereo not shown) [Compound B-4, 1-{5-[6-(4-methylpyridin-2-ylamino)pyridin-2-yl]thiophen-2-yl}ethyl acetate acetic acid ester]	
				Cc1ccnc(Nc2cccc(-c3cnc(N4CCc5c(cccc5C(=O)O)C4)s3)n2)c1 [Compound A-582, 2-{5-[6-(4-methylpyridin-2-ylamino)pyridin-2-yl]thiazol-2-yl}-1,2,3,4-tetrahydroisoquinoline-5-carboxylic acid]	IC50 ([1]; Tables 1-x, compounds A): > 1000 nM; IC50 [2, 5]: < 100 nM
100 to 1000 nM	100 to 1000 nM			CON(C)C(=O)[C@H]1CC[C@H](c2ncc(-c3cccc(Nc4cc(C)ccn4)n3)s2)CC1 [Compound A-265]	
				Cc1ccnc(Nc2cccc(-c3cnc([C@H](CO)NC(=O)c4ccc(O)cc4)s3)n2)c1 [Compound A-394]	IC50 ([1]; Tables 1-x, compounds A): 100 to 1000 nM; IC50 [2, 5]: 100 to 1000 nM
100 to 1000 nM	100 to 1000 nM			COC(=O)CN1CCC(c2ncc(-c3cccc(Nc4cc(C)ccn4)n3)s2)CC1 [Compound A-184]	
		100 to 1000 nM	100 to 1000 nM	Cc1ccnc(Nc2cccc(-c3ccc(C(=O)NCCO)s3)n2)c1 [Compound B-24]	
100 to 1000 nM	100 to 1000 nM			CC(=O)N[C@H](c1ncc(-c2cccc(Nc3cc(C)ccn3)n2)s1)C(C)C [Compound A-38]	
				Cc1ccnc(Nc2cccc(-c3cnc(N4CCOc5c(C(=O)O)cccc54)s3)n2)c1 [Compound A-614, 4-{5-[6-(4-methylpyridin-2-ylamino)pyridin-2-yl]thiazol-2-yl}-3,4-dihydro-2H-benzo[1,4]oxazine-8-carboxylic acid]	IC50 ([1]; Tables 1-x, compounds A): > 1000 nM; IC50 [2, 5]: < 100 nM
		> 1000 nM	100 to 1000 nM	Cc1ccnc(Nc2cccc(-c3ccc(C(=O)N(C)C)s3)n2)c1 [Compound B-22]	
				Cc1ccnc(Nc2cccc(-c3cnc(N(C)Cc4ccc(C(=O)O)s4)s3)n2)c1 [Compound A-603, 5-[(N-methyl-N-{5-[6-(4-methylpyridin-2-ylamino)pyridin-2-yl]thiazol-2-yl}amino)methyl]thiophene-2-carboxylic acid]	IC50 ([1]; Tables 1-x, compounds A): > 1000 nM; IC50 [2, 5]: < 100 nM
		> 1000 nM	100 to 1000 nM	Cc1ccnc(Nc2cccc(-c3ccc(C(=O)NCC(=O)O)s3)n2)c1 [Compound B-99]	
100 to 1000 nM	< 100 nM			Cc1ccnc(Nc2cccc(-c3cnc(C4CCN(C(=O)CO)CC4)s3)n2)c1 [Compound A-187, 2-hydroxy-1-(4-{5-[6-(4-methylpyridin-2-ylamino)pyridin-2-yl]thiazol-2-yl}piperidin-1-yl)ethanone]	
> 1000 nM	100 to 1000 nM			CC(=O)N[C@@H](C)c1nc(C)c(-c2cccc(Nc3cc(C)ccn3)n2)s1 [Compound A-105]	
> 1000 nM	100 to 1000 nM			Cc1ccnc(Nc2cccc(-c3cnc(CNC(=O)CC(=O)O)s3)n2)c1 [Compound A-169]	
		> 1000 nM	100 to 1000 nM	CC(=O)c1ccc(-c2ncc(C)c(Nc3cc(C)ccn3)n2)s1 [Compound B-29]	
